Patent US10294202B2, “Pyrrolidinones as herbicides” (FMC Corporation, priority 2013, dated 2019)

Assays:
[1] = tested on: soybean; assay: Test C pre-/postemergence herbicide test; type: in vivo, Glycine max
Method in brief: (§1)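 Response scores range from 0, meaning no effect, to 100, meaning complete control, assigned visually by comparison with controls roughly two weeks (13 to 15 days) after spraying. Applications were made preemergence to seeded loam–sand soil and postemergence to 1- to 4-leaf plants.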

[2] = tested on: sedge, umbrella; assay: Test B flooded paddy test; type: in vivo, Cyperus difformis; conditions: 1000 g ai/ha, Flood; scale of 0 to 100 where 0 is no effect and 100 is complete control
Method in brief: (§2)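 Paddy-water application at a 3 cm flood, young plants having two leaves. Water level maintained; greenhouse, 13–15 days; visual 0–100 control rating.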

[3] = tested on: lambsquarters; assay: Test C pre-/postemergence herbicide test; type: in vivo, Chenopodium album
Method in brief: as §1

[4] = tested on: ragweed; assay: Test C pre-/postemergence herbicide test; type: in vivo, Ambrosia elatior
Method in brief: as §1

[5] = tested on: johnsongrass; assay: Test C pre-/postemergence herbicide test; type: in vivo, Sorghum halepense
Method in brief: as §1

[6] = tested on: barnyardgrass; assay: Test C pre-/postemergence herbicide test; type: in vivo, Echinochloa crus-galli
Method in brief: as §1

[7] = tested on: waterhemp; assay: Test C pre-/postemergence herbicide test; type: in vivo, Amaranthus rudis
Method in brief: as §1

[8] = tested on: oat, wild; assay: Test C pre-/postemergence herbicide test; type: in vivo, Avena fatua; conditions: Postemergence
Method in brief: as §1

[9] = tested on: morningglory; assay: Test C pre-/postemergence herbicide test; type: in vivo, Ipomoea coccinea
Method in brief: as §1

[10] = tested on: corn; assay: Test A pre-/postemergence herbicide test; type: in vivo, Zea mays
Method in brief: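 Scoring was visual, relative to untreated controls, on a 0–100 scale after about 10 greenhouse days. Preemergence treatment used a directed soil spray over seeded loam/sand; postemergence treatment targeted one- to two-leaf plants of 2–10 cm.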

[11] = tested on: rice; assay: Test B flooded paddy test; type: in vivo, Oryza sativa; conditions: 1000 g ai/ha, Flood; scale of 0 to 100 where 0 is no effect and 100 is complete control
Method in brief: as §2

[12] = Postemergence, 31 g ai/ha, scale 0 (no effect) to 100 (complete control)
[13] = Postemergence, 62 g ai/ha, scale 0 to 100 (0 no effect, 100 complete control)
[14] = Postemergence, 125 g ai/ha, scale 0 to 100 (0 no effect, 100 complete control)
[15] = Postemergence, 250 g ai/ha, scale 0 to 100 (0 no effect, 100 complete control)
[16] = 31 g ai/ha, scale 0 (no effect) to 100 (complete control)
[17] = 62 g ai/ha, scale 0 to 100 (0 no effect, 100 complete control)
[18] = 125 g ai/ha, scale 0 to 100 (0 no effect, 100 complete control)
[19] = 250 g ai/ha, scale 0 to 100 (0 no effect, 100 complete control)
[20] = Preemergence, 31 g ai/ha, scale 0 to 100, 0 is no effect and 100 is complete control
[21] = Preemergence, 62 g ai/ha, scale 0 to 100
[22] = Preemergence, 125 g ai/ha, scale 0 to 100 (0 no effect, 100 complete control)

Cc1c(F)cccc1NC(=O)C1C(=O)NCC1c1ccc(F)c(F)c1 (racemic) [Compound 106]
Plant response rating, Soybean [1, 12]: 0
Plant response rating, Soybean [1, 13]: 0
Plant response rating, Soybean [1, 14]: 5
Plant response rating, Soybean [1, 15]: 5
Plant response rating, Sedge, Umbrella [2]: 0
Plant response rating, Lambsquarters [3, 12]: 0
Plant response rating, Lambsquarters [3, 13]: 25
Plant response rating, Lambsquarters [3, 14]: 0
Plant response rating, Lambsquarters [3, 15]: 0
Plant response rating, Ragweed [4, 12]: 25
Plant response rating, Ragweed [4, 13]: 0
Plant response rating, Ragweed [4, 14]: 0
Plant response rating, Ragweed [4, 15]: 5
Plant response rating, Johnsongrass [5, 12]: 0
Plant response rating, Johnsongrass [5, 13]: 0
Plant response rating, Johnsongrass [5, 14]: 0
Plant response rating, Johnsongrass [5, 15]: 0
Plant response rating, Barnyardgrass [6, 12]: 0
Plant response rating, Barnyardgrass [6, 13]: 0
Plant response rating, Barnyardgrass [6, 14]: 0
Plant response rating, Barnyardgrass [6, 15]: 30
Plant response rating, Waterhemp [7, 12]: 0
Plant response rating, Waterhemp [7, 13]: 0
Plant response rating, Waterhemp [7, 14]: 10
Plant response rating, Waterhemp [7, 15]: 20
Plant response rating, Oat, Wild [8, 16]: 0
Plant response rating, Oat, Wild [8, 17]: 0
Plant response rating, Oat, Wild [8, 18]: 0
Plant response rating, Oat, Wild [8, 19]: 0
Plant response rating, Morningglory [9, 12]: 0
Plant response rating, Morningglory [9, 13]: 5
Plant response rating, Morningglory [9, 14]: 10
Plant response rating, Morningglory [9, 15]: 5
Plant response rating, Corn ([10]; Postemergence, 1000 g ai/ha, 0 to 100 scale (0 no effect, 100 complete control)): 50
Plant response rating, Corn ([10]; preemergence, 1000 g ai/ha, 0 to 100 scale): 30
Plant response rating, Rice [11]: 15

Cc1ccccc1NC(=O)C1C(=O)NCC1c1cccc(C(F)(F)F)c1 (racemic) [Compound 109]
Plant response rating, Soybean [1, 12]: 0
Plant response rating, Soybean [1, 13]: 0
Plant response rating, Soybean [1, 14]: 5
Plant response rating, Soybean [1, 15]: 5
Soybean plant response rating [1, 20]: 100
Plant response rating, Soybean [1, 21]: 0
Plant response rating, Soybean [1, 22]: 55
Plant response rating (scale of 0 to 100), Soybean ([1]; Preemergence, 250 g ai/ha): 0
Plant response rating, Sedge, Umbrella [2]: 80
Plant response rating, Lambsquarters [3, 12]: 0
Plant response rating, Lambsquarters [3, 13]: 0
Plant response rating, Lambsquarters [3, 14]: 0
Plant response rating, Lambsquarters [3, 15]: 5
Lambsquarters plant response rating [3, 20]: 0
Plant response rating, Lambsquarters [3, 21]: 0
Plant response rating, Lambsquarters [3, 22]: 5
Plant response rating (scale of 0 to 100), Lambsquarters ([3]; Preemergence, 250 g ai/ha): 0
Plant response rating, Ragweed [4, 12]: 0
Plant response rating, Ragweed [4, 13]: 0
Plant response rating, Ragweed [4, 14]: 0
Plant response rating, Ragweed [4, 15]: 5
Ragweed plant response rating [4, 20]: 0
Plant response rating, Ragweed [4, 21]: 0
Plant response rating, Ragweed [4, 22]: 0
Plant response rating (scale of 0 to 100), Ragweed ([4]; Preemergence, 250 g ai/ha): 10
Plant response rating, Johnsongrass [5, 12]: 0
Plant response rating, Johnsongrass [5, 13]: 0
Plant response rating, Johnsongrass [5, 14]: 0
Plant response rating, Johnsongrass [5, 15]: 0
Johnsongrass plant response rating [5, 20]: 0
Plant response rating, Johnsongrass [5, 21]: 10
Plant response rating, Johnsongrass [5, 22]: 40
Plant response rating (scale of 0 to 100), Johnsongrass ([5]; Preemergence, 250 g ai/ha): 70
Plant response rating, Barnyardgrass [6, 12]: 0
Plant response rating, Barnyardgrass [6, 13]: 0
Plant response rating, Barnyardgrass [6, 14]: 0
Plant response rating, Barnyardgrass [6, 15]: 45
Barnyardgrass plant response rating [6, 20]: 70
Plant response rating, Barnyardgrass [6, 21]: 85
Plant response rating, Barnyardgrass [6, 22]: 95
Plant response rating (scale of 0 to 100; 0 is no effect, 100 is complete control), Barnyardgrass ([6]; Preemergence, 250 g ai/ha): 98
Plant response rating, Waterhemp [7, 12]: 0
Plant response rating, Waterhemp [7, 13]: 0
Plant response rating, Waterhemp [7, 14]: 0
Plant response rating, Waterhemp [7, 15]: 0
Waterhemp plant response rating [7, 20]: 0
Plant response rating, Waterhemp [7, 21]: 50
Plant response rating, Waterhemp [7, 22]: 0
Plant response rating (scale of 0 to 100), Waterhemp ([7]; Preemergence, 250 g ai/ha): 20
Plant response rating, Oat, Wild [8, 16]: 0
Plant response rating, Oat, Wild [8, 17]: 0
Plant response rating, Oat, Wild [8, 18]: 0
Plant response rating, Oat, Wild [8, 19]: 0
Plant response rating, Morningglory [9, 12]: 20
Plant response rating, Morningglory [9, 13]: 0
Plant response rating, Morningglory [9, 14]: 5
Plant response rating, Morningglory [9, 15]: 15
Morningglory plant response rating [9, 20]: 0
Plant response rating, Morningglory [9, 21]: 0
Plant response rating, Morningglory [9, 22]: 5
Plant response rating (scale of 0 to 100), Morningglory ([9]; Preemergence, 250 g ai/ha): 30
Plant response rating, Corn ([10]; Postemergence, 125 g ai/ha, 0 to 100 scale, 0 no effect, 100 complete control): 50
Plant response rating, Corn ([10]; Postemergence, 500 g ai/ha, 0 to 100 scale (0 no effect, 100 complete control)): 80
Plant response rating, Rice [11]: 0
